Test results as given in patent US8859569B2, “Substituted annellated pyrimidines and use thereof” (Bayer Pharma Aktiengesellschaft, priority 2011, dated 2014).
pIC50: −log10 of the molar value.

Tests used:
[1] = target: T1, human phosphodiesterase 5 (PDE-5) (Homo sapiens, UniProt O76074); experiment: Inhibition of human phosphodiesterase 5 (PDE-5), SPA assay; assay type: biochemical; conditions: PDE-5 preparation from human platelets, [8-3H]cGMP substrate
T1 construct: PDE-5 preparations are obtained from human platelets by lysis; from tissue; host or cells: human platelets
Method in brief: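 PDE-5 partially purified from human platelets by Mono Q chromatography, diluted so under 70% of [8-3H]cGMP (0.025 μCi) converted. Compounds at 4 μM to 0.0018 μM final, Tris-HCl pH 7.5 with MgCl2, 60 min at room temperature. Yttrium SPA beads stop reaction; IC50 from concentration–inhibition plots.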

aorta rings = experiment: Vessel-relaxing action in vitro (aorta rings, phenylephrine contraction); conditions: Oryctolagus cuniculus, concentration required to reduce phenylephrine-induced contraction of rabbit aorta rings by 50%
Method in brief: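 Rabbit aortic rings 1.5 mm wide were held under preload in carbogen-gassed Krebs-Henseleit at 37 °C and contracted with cumulative phenylephrine. Test substance was added in rising doses on successive passes, each compared with the preceding control contraction. IC50 is the concentration that halves contraction, with 0.1% DMSO in the bath.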

[2] = target: T2, recombinant guanylate cyclase reporter cell line (Rattus norvegicus, UniProt P19686+P20595); experiment: Action on recombinant guanylate cyclase reporter cell line; assay type: cell-based
T2 construct: expressed in transfected cells
T2 sequence (P20595 1-619): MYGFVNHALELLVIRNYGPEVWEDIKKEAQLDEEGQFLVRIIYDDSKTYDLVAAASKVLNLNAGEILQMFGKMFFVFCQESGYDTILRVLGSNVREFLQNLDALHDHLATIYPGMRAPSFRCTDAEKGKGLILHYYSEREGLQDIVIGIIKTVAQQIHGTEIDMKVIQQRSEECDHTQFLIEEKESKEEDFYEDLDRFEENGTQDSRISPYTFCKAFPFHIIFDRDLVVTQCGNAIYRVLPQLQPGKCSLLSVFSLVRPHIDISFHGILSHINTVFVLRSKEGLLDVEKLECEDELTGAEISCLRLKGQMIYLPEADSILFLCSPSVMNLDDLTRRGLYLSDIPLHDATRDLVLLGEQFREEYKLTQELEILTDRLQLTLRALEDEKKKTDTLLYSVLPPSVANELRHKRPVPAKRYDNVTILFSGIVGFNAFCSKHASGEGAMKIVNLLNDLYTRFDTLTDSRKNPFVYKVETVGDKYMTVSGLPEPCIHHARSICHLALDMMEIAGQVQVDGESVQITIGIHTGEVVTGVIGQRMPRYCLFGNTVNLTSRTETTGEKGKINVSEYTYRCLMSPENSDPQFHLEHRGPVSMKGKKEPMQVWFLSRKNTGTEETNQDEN
T2 sequence (P19686 1-690): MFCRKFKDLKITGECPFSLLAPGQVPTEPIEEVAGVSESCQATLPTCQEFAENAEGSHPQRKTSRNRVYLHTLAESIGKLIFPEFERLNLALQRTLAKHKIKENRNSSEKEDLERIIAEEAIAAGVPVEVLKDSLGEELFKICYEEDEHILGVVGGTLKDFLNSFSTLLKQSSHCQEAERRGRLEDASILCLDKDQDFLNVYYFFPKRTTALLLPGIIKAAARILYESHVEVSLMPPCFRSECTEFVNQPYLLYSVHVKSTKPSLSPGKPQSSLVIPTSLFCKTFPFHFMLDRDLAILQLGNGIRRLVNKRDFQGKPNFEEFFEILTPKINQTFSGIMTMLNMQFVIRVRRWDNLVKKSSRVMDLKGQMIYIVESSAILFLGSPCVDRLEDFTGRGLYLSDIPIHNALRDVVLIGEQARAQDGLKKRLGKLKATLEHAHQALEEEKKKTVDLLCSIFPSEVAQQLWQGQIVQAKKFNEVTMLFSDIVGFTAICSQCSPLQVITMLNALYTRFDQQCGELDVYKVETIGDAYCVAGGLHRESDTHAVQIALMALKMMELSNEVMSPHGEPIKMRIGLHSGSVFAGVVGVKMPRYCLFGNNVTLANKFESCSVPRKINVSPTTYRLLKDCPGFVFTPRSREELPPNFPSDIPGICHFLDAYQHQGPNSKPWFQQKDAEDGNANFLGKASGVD
Method: B-2. Action on Recombinant Guanylate Cyclase Reporter Cell Line
The cellular action of the compounds according to the invention is determined on a recombinant guanylate cyclase reporter cell line, as described in F. Wunder et al., Anal. Biochem. 339, 104-112 (2005).

pIC50 [1]	pIC50 (aorta rings)	MEC (minimal effective concentration) [2]	SMILES
6.68	5.79	0.1 μm	CCOc1nc(-c2nn(Cc3ccccc3F)c3ncccc23)nc2c1C(C)(C)C(=O)N2 [Example 112, 4-Ethoxy-2-[1-(2-fluorobenzyl)-1H-pyrazolo[3,4-b]pyridin-3-yl]-5,5-dimethyl-5,7-dihydro-6H-pyrrolo[2,3-d]pyrimidin-6-one]
6.92	5.71	0.1 μm	CC1(C)C(=O)Nc2nc(-c3nn(Cc4ccccc4F)c4ncccc34)nc(OCC3CC3)c21 [Example 113, 4-(Cyclopropylmethoxy)-2-[1-(2-fluorobenzyl)-1H-pyrazolo[3,4-b]pyridin-3-yl]-5,5-dimethyl-5,7-dihydro-6H-pyrrolo[2,3-d]pyrimidin-6-one]
6.60	5.79	0.3 μm	CC1(C)C(=O)Nc2nc(-c3nn(Cc4ccccc4F)c4ncccc34)nc(OCC(F)(F)F)c21 [Example 115, 2-[1-(2-Fluorobenzyl)-1H-pyrazolo[3,4-b]pyridin-3-yl]-5,5-dimethyl-4-(2,2,2-trifluoroethoxy)-5,7-dihydro-6H-pyrrolo[2,3-d]pyrimidin-6-one]
7.28	7.42	0.03 μm	CC1(C)C(=O)Nc2nc(-c3nn(Cc4ccccc4F)c4ncccc34)nc(OCCO)c21 [Example 117, 2-[1-(2-Fluorobenzyl)-1H-pyrazolo[3,4-b]pyridin-3-yl]-4-(2-hydroxyethoxy)-5,5-dimethyl-5,7-dihydro-6H-pyrrolo[2,3-d]pyrimidin-6-one]
